Source: EP0467660A2, “Use of d-limonenes as testosterone-5-alpha-reductase inhibitor and as hair grower” (Miyauchi, Yutaka, priority 1990, dated 1992)
pIC50: −log10 of the molar value.

System: testosterone 5α-reductase
Test: Testosterone 5α-reductase enzymatic activity inhibitory ratio (crude rat prostate enzyme, [4-14C]-testosterone to DHT conversion, TLC)
Format: biochemical, Wristar male rat
Conditions: 37°C, two hours; for inhibitory effect on the testosterone 5α-reductase activity: result in words, Figs. 3-5
Method: A Wristar male rat weighing 250-300 g was sacrificed by bleeding, and its prostata was excised. The prostata was cut into fragments under ice-cooling. A 0.1 M HEPES buffer solution (pH: 7.4) containing 0.25 M sucrose (the buffer solution is hereinafter referred to as buffer solution A) was added to the fragments in the amount three times the wet weight of the fragments. Using a Potter-type homogenizer made of Teflon, the mixture was homogenized. The homogenate was filtered using a stainless mesh of a 200 µ size, and then the filtrate was centrifuged at 3000 rpm (900 xg) for ten minutes. The precipitate was suspended in 2.5 parts of buffer solution A, followed by centrifuging at 3000 rpm for five minutes. The residue recovered was suspended in buffer solution A weighing 0.8 times the wet weight of the fragments to produce a crude enzyme solution. The crude enzyme solution was stored at -70°C.
The test sample (less than 10 µl) previously prepared was added to [4-¹⁴C]-testosterone (1.5 nmol, 2.85 kBq), NADPH (0.5 µmol), and the enzyme solution (30 µl) cited above. To this was added the buffer solution A to the extent that the total volume became 100 µl, to prepare a reaction liquid. An enzymatic reaction was performed using the reaction liquid at 37°C for two hours. The enzymatic reaction was initiated by removing the reaction liquid from an ice-water-cooled bath to a 37°C warm bath. The enzymatic reaction was terminated by cooling the reaction liquid in ice-water. […]
A radiation activity of the developed material on the TLC plate cited above was measured by means of an AMBIS image analyzer.
Two spots shown in a chromatogram were subjected to readings of the radiation activities identified by their positions corresponding to testosterone (T) and dihydrotestosterone (DHT) respectively. […] Defining the conversion rate in the presence of the negative control as 100, a percentage of the conversion rate in the presence of the sample was calculated to determine the degree of the enzymatic activity inhibitory ratio of the sample. […]

Structure (SMILES)	inhibitory effect on the testosterone 5α-reductase activity	pIC50 (Fig. 1, 120 min, read-out: amount exhibiting a inhibitory ratio of 50%)
C=C(C)[C@H]1CC=C(C)CC1 [d-limonene]	considerable high inhibitory effect	
CC1(C)[C@@H](O)CC[C@]2(C)[C@H]3C(=O)C=C4[C@@H]5C[C@@](C)(C(=O)O)CC[C@]5(C)CC[C@@]4(C)[C@]3(C)CC[C@@H]12 [sodium β-glycyrrhetinic acid]		3.30
C=C[C@H]1[C@H](O[C@@H]2O[C@H](CO)[C@@H](O)[C@H](O)[C@H]2O)OC=C2C(=O)OCC[C@]21O [swertiamarin]	no inhibitory effect	
